Experiments:
purified cathepsin K = settings: read-out: IC50 against purified cathepsin K; literature value; cited from earlier work
cathepsin K [1] = settings: cited from earlier work
cathepsin K [2] = target: T1, cathepsin K (Mus musculus, UniProt P55097); assay: Live cell cathepsin K activity staining in osteoclasts
T1 sequence (P55097 115-329): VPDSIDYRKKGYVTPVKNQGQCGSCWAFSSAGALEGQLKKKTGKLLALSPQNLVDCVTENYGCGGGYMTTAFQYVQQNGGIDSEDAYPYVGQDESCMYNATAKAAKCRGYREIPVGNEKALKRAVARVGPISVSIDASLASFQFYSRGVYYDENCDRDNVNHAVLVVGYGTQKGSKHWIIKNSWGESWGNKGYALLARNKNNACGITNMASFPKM

[3] = target: T2, Recombinant cathepsin K (human) (Homo sapiens, UniProt P43235); settings: read-out: IC50 against purified human cathepsin K; parent inhibitors; identical within error under light vs. dark; cathepsin K 2 nM, Z-Gly-Pro-Arg-AMC 100 μM
T2 sequence (P43235 115-329): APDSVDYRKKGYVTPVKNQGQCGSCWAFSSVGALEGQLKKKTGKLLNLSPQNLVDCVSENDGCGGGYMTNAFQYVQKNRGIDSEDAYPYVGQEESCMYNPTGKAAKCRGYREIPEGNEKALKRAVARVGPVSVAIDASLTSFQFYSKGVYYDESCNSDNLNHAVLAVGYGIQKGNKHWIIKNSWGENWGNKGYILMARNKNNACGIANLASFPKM

[4] = longer than 2; cited from earlier work
[5] = cited from earlier work
[6] = test system: bone marrow macrophages (BMMs); assay: Cell viability, MTT assay, BMM cells; settings: dark or irradiated, 24 h, tested 1 nM–100 μM
[7] = test system: PC3 prostate carcinoma cells; assay: Cell viability, MTT assay, PC3 cells; settings: PC-3 cells, dark or irradiated, 24 h, tested 1 nM–100 μM

Row | SMILES | IC50 (purified cathepsin K) [µM] | inhibition of cathepsin K activity in live cell assays (cathepsin K [1]) | maximum inhibition of Z-LR-4MβNA hydrolysis (cathepsin K [2]; 4 under light conditions) [%] | reduction of hydrolysis of Z-LR-4MβNA (cathepsin K [2]; 10–1000 nM, dose dependent, with CA074Me 1 μM) | IC50 [3] [µM] | half-life in vivo relative to 2 [4] | plasma stability relative to 2 [5] | concentrations with no effects on viability / well tolerated (MTT) [6] | concentrations with no effects on viability / well tolerated (MTT) [7] | effect on Z-LR-4MβNA hydrolysis at 1000 nM (cathepsin K [2]; 1000 nM, with CA074Me 1 μM) | difference in inhibition between light and dark (cathepsin K [2]; Z-LR-4MβNA, with CA074Me 1 μM)
1 | CC(C)CC(NC(=O)OCc1ccccc1)C(=O)NCC#N (stereo not drawn) [Compound 2, Cbz-Leu-NHCH2CN, reference compound] | 0.035 | inhibit cathepsin K activity in live cell assays | 50 | up to 50% | 0.036 |  |  |  |  |  | 
2 | CC(C)CC(NC(=O)OCc1ccccc1)C(=O)NC(C#N)COCc1ccccc1 (stereo not drawn) [Compound 3, Cbz-Leu-Ser(OBn)-CN] | 0.009 |  |  |  | 0.028 | roughly 10 times | longer plasma stability |  |  |  | 
3 | CC#N.CC#N.F[P-](F)(F)(F)(F)F.F[P-](F)(F)(F)(F)F.[Ru+2].c1ccc(-c2ccccn2)nc1.c1ccc(-c2ccccn2)nc1 [reference compound] |  |  |  |  |  |  |  | up to 10 μM | up to 10 μM | slight reduction | no difference in inhibition between light and dark experiments

From PMC4095795 (ChemMedChem, 2014)
